From ChEMBL document CHEMBL4346715, “Antibacterial activity study of 1,2,4-triazole derivatives” (Eur J Med Chem, 2019)

Columns and labels:
[1] = test system: Listeria innocua; test: Antibacterial activity against Listeria innocua incubated for 18 hrs post 30 mins pre-diffusion by disk diffusion method; format: functional
[2] = test system: Micrococcus luteus; test: Antibacterial activity against Micrococcus luteus incubated for 18 hrs post 30 mins pre-diffusion by disk diffusion method; format: functional
[3] = test system: Escherichia coli; test: Antibacterial activity against Escherichia coli incubated for 18 hrs post 30 mins pre-diffusion by disk diffusion method; format: functional
[4] = test system: Bacillus subtilis; test: Antibacterial activity against Bacillus subtilis incubated for 18 hrs post 30 mins pre-diffusion by disk diffusion method; format: functional
[5] = test system: Pseudomonas aeruginosa; test: Potency index, ratio of ciprofloxacin MIC to test compound MIC for Pseudomonas aeruginosa ATCC 27853 after 24 hrs by broth microdilution method; format: functional
[6] = test system: Pseudomonas aeruginosa; test: Antibacterial activity against Pseudomonas aeruginosa ATCC 27853 after 24 hrs by broth microdilution method; format: functional; conditions: ATCC 27853, 24 h
[7] = test system: Listeria monocytogenes; test: Antibacterial activity against Listeria monocytogenes ATCC 35152 after 24 hrs by broth microdilution method; format: functional; conditions: ATCC 35152, 24 h
[8] = test system: Listeria monocytogenes; test: Potency index, ratio of ciprofloxacin MIC to test compound MIC for Listeria monocytogenes ATCC 35152 after 24 hrs by broth microdilution method; format: functional
[9] = test system: Bacillus anthracis; test: Antibacterial activity against Bacillus anthracis incubated for 18 hrs post 30 mins pre-diffusion by disk diffusion method; format: functional
[10] = test system: Staphylococcus aureus; test: Antibacterial activity against methicillin-resistant Staphylococcus aureus incubated for 18 hrs post 30 mins pre-diffusion by disk diffusion method; format: functional
[11] = test system: Escherichia coli; test: Antibacterial activity against Escherichia coli ATCC 25922 after 24 hrs by microdilution method; format: functional; conditions: ATCC 25922, 24 h
[12] = test system: Enterococcus faecalis; test: Antibacterial activity against Enterococcus faecalis ATCC 29212 after 24 hrs by microdilution method; format: functional; conditions: ATCC 29212, 24 h
[13] = test system: Candida albicans; test: Antifungal activity against Candida albicans ATCC 50193 after 24 hrs by microdilution method; format: functional; conditions: ATCC 50193, 24 h
[14] = test system: Bacillus cereus; test: Antibacterial activity against Bacillus cereus ATCC 10876 after 24 hrs by microdilution method; format: functional; conditions: ATCC 10876, 24 h
[15] = test system: Staphylococcus aureus; test: Antibacterial activity against Staphylococcus aureus ATCC 25923 after 24 hrs by microdilution method; format: functional; conditions: ATCC 25923, 24 h
[16] = test system: Aspergillus brasiliensis; test: Antifungal activity against Aspergillus brasiliensis ATCC 16404 after 24 hrs by microdilution method; format: functional; conditions: ATCC 16404, 24 h
[17] = test system: Proteus mirabilis; test: Antibacterial activity against Proteus mirabilis ATCC 35659 after 24 hrs by microdilution method; format: functional; conditions: ATCC 35659, 24 h
[18] = test system: Candida albicans; test: Antifungal activity against Candida albicans; format: functional
[19] = test system: Pseudomonas aeruginosa; test: Antibacterial activity against Pseudomonas aeruginosa ATCC 27853 after 24 hrs by microdilution method; format: functional; conditions: ATCC 27853, 24 h
[20] = test system: Aspergillus niger; test: Antifungal activity against Aspergillus niger; format: functional
[21] = test system: Staphylococcus aureus; test: Antibacterial activity against Staphylococcus aureus assessed as zone of inhibition; format: functional
[22] = test system: Escherichia coli; test: Antibacterial activity against Escherichia coli assessed as zone of inhibition; format: functional
[23] = test system: Bacillus subtilis; test: Antibacterial activity against Bacillus subtilis assessed as zone of inhibition; format: functional
[24] = test system: Salmonella typhimurium; test: Antibacterial activity against Salmonella typhimurium assessed as zone of inhibition; format: functional, Salmonella enterica subsp. enterica serovar Typhimurium
[25] = test system: Pseudomonas aeruginosa; test: Antibacterial activity against Pseudomonas aeruginosa; format: functional
[26] = test system: Staphylococcus aureus; test: Antibacterial activity against Staphylococcus aureus; format: functional
[27] = test system: Staphylococcus aureus; test: Antibacterial activity against Staphylococcus aureus incubated for 18 hrs post 30 mins pre-diffusion by disk diffusion method; format: functional
[28] = test system: Plasmodium falciparum; test: Antiplasmodial activity against Plasmodium falciparum; format: functional, organism-based
[29] = test system: Bacillus subtilis; test: Antibacterial activity against Bacillus subtilis; format: functional
[30] = test system: Streptococcus pneumoniae; test: Antibacterial activity against Streptococcus pneumoniae; format: functional
[31] = test system: Escherichia coli; test: Antibacterial activity against Escherichia coli; format: functional
[32] = test system: Clostridium tetani; test: Antibacterial activity against Clostridium tetani; format: functional
[33] = test system: Trichophyton rubrum; test: Antifungal activity against Trichophyton rubrum; format: functional

COC(=O)c1ncn(CN(CCCO)Cn2cnc(C(=O)OC)n2)n1
7 to 15 µg/mL: MIC [1] | MIC [2] | MIC [3] | MIC [4]

COc1ccccc1/C=N/n1c(S)nnc1-c1sc(-c2ccccc2)nc1C
2: Ratio [5] | Ratio [8]
1.95 µg/mL: MIC [6] | MIC [7]

NC[C@H]1O[C@H](O[C@H]2[C@H](O)[C@@H](O[C@H]3O[C@H](CO)[C@@H](O)[C@H](N)[C@H]3O)[C@H](N)C[C@@H]2N)[C@H](O)[C@@H](O)[C@@H]1O [KANAMYCIN]
31 to 1000 µg/mL: MIC [9] | MIC [10]

OC(Cn1cncn1)(Cn1cncn1)c1ccc(F)cc1F [FLUCONAZOLE]
10.2 µg/mL: MIC [18]
9.4 µg/mL: MIC [20]
1 µg/mL: MIC [13] | MIC [16]
4 µg/mL: MIC [11] | MIC [12] | MIC [14] | MIC [15] | MIC [17] | MIC [19]

O=C(O)c1cn(C2CC2)c2cc(N3CCNCC3)c(F)cc2c1=O [CIPROFLOXACIN]
1 to 8 µg/mL: MIC [11] | MIC [12] | MIC [13] | MIC [14] | MIC [15] | MIC [16] | MIC [17] | MIC [19]
3.9 µg/mL: MIC [6] | MIC [7]

S=c1[nH]nc(-c2ccc(Cl)cc2)n1-n1c(-c2ccc(Br)cc2)nc(-c2ccccc2)c1-c1ccccc1
10 - 18 mm: inhibition zone (IZ) [21] | inhibition zone (IZ) [22] | inhibition zone (IZ) [23] | inhibition zone (IZ) [24]

CCn1cc(C(=O)O)c(=O)c2cc(F)c(N3CCNCC3)cc21 [NORFLOXACIN]
11.7 µg/mL: MIC [25]
31 to 1000 µg/mL: MIC [9] | MIC [10]
7.8 µg/mL: MIC [18]
10.2 µg/mL: MIC [20]
14.1 µg/mL: MIC [26]

CO[C@H]1/C=C/O[C@@]2(C)Oc3c(C)c(O)c4c(O)c(c(/C=N/N5CCN(C)CC5)c(O)c4c3C2=O)NC(=O)/C(C)=C\C=C\[C@H](C)[C@H](O)[C@@H](C)[C@@H](O)[C@@H](C)[C@H](OC(C)=O)[C@@H]1C [RIFAMPIN]
31 to 1000 µg/mL: MIC [9] | MIC [10]

Cc1nc(-c2ccccc2)sc1-c1nnc(S)n1/N=C/c1ccc([N+](=O)[O-])cc1
1.95 µg/mL: MIC [6] | MIC [7]
2: Ratio [5] | Ratio [8]

CCCCCCCCCCCCCCCCn1nnc(-c2n[nH]c(=S)n2N)c1-c1n[nH]c(=S)n1N
1 to 128 µg/mL: MIC [11] | MIC [12] | MIC [13] | MIC [14] | MIC [15] | MIC [16] | MIC [17] | MIC [19]

Cn1cnc(CN(CCCO)Cc2ncn(C)n2)n1
7 to 15 µg/mL: MIC [1] | MIC [2] | MIC [3] | MIC [4]

CCCCCCCCCCCCn1nnc(-c2n[nH]c(=S)n2N)c1-c1n[nH]c(=S)n1N
1 to 128 µg/mL: MIC [11] | MIC [12] | MIC [13] | MIC [14] | MIC [15] | MIC [16] | MIC [17] | MIC [19]

CN(C)[C@@H]1C(O)=C(C(N)=O)C(=O)[C@@]2(O)C(O)=C3C(=O)c4c(O)cccc4[C@@](C)(O)[C@H]3C[C@@H]12 [TETRACYCLINE]
31 to 1000 µg/mL: MIC [9] | MIC [10]
14 - 17 mm: inhibition zone (IZ) [21] | inhibition zone (IZ) [22] | inhibition zone (IZ) [23] | inhibition zone (IZ) [24]
20 to 21 µg/mL: MIC [1] | MIC [2] | MIC [3] | MIC [4]

CCCCCCCCCCCCn1nnc(-c2n[nH]c(=S)n2-c2ccccc2)c1-c1n[nH]c(=S)n1-c1ccccc1
1 to 128 µg/mL: MIC [11] | MIC [12] | MIC [13] | MIC [14] | MIC [15] | MIC [16] | MIC [17] | MIC [19]

COc1cccc(/C=N/n2c(S)nnc2-c2sc(-c3ccccc3)nc2C)c1
1.95 µg/mL: MIC [6] | MIC [7]
2: Ratio [5] | Ratio [8]

COC(=O)c1ncn(CNCn2cnc(C(=O)OC)n2)n1
7 to 15 µg/mL: MIC [1] | MIC [2] | MIC [3] | MIC [4]

COC(=O)c1ncn(CN(Cn2cnc(C(=O)OC)n2)C(C)C)n1
7 to 15 µg/mL: MIC [1] | MIC [2] | MIC [3] | MIC [4]

CCCCCCCCCCCCCCCCn1nnc(-c2n[nH]c(=S)n2-c2ccccc2)c1-c1n[nH]c(=S)n1-c1ccccc1
1 to 128 µg/mL: MIC [11] | MIC [12] | MIC [13] | MIC [14] | MIC [15] | MIC [16] | MIC [17] | MIC [19]

CC(C)N(Cc1ncn(C)n1)Cc1ncn(C)n1
7 to 15 µg/mL: MIC [1] | MIC [2] | MIC [3] | MIC [4]

Fc1ccc(-c2nc(-c3ccccc3)c(-c3ccccc3)n2-n2c(-c3ccc(Cl)cc3)n[nH]c2=S)cc1
10 - 18 mm: inhibition zone (IZ) [21] | inhibition zone (IZ) [22] | inhibition zone (IZ) [23] | inhibition zone (IZ) [24]

CCCCCCCCCCCCCCn1nnc(-c2n[nH]c(=S)n2-c2ccccc2)c1-c1n[nH]c(=S)n1-c1ccccc1
1 to 128 µg/mL: MIC [11] | MIC [12] | MIC [13] | MIC [14] | MIC [15] | MIC [16] | MIC [17] | MIC [19]

POLYMYXIN B
31 to 1000 µg/mL: MIC [9] | MIC [10]

Cc1nc(-c2ccccc2)sc1-c1nnc(S)n1/N=C/c1cccs1
2: Ratio [5] | Ratio [8]
1.95 µg/mL: MIC [6] | MIC [7]

FC(F)(F)c1cc(-c2nnc(Sc3cc(Cl)nc(Sc4ccccc4)n3)[nH]2)cc(C(F)(F)F)c1
0.75 to 1.8 µg/mL: MIC [9] | MIC [10]
3.1 µg/mL: MIC [27]
1.8 µg/mL: MIC [3]

N#Cc1ccc(-c2nc(-c3ccccc3)c(-c3ccccc3)n2-n2c(-c3ccc(Cl)cc3)n[nH]c2=S)cc1
10 - 18 mm: inhibition zone (IZ) [21] | inhibition zone (IZ) [22] | inhibition zone (IZ) [23] | inhibition zone (IZ) [24]

C=C[C@H]1CN2CC[C@H]1C[C@H]2[C@H](O)c1ccnc2ccc(OC)cc12 [QUININE]
0.268 µg/mL: IC50 [28]

CN[C@H](CC(C)C)C(=O)N[C@H]1C(=O)N[C@@H](CC(N)=O)C(=O)N[C@H]2C(=O)N[C@H]3C(=O)N[C@H](C(=O)N[C@H](C(=O)O)c4cc(O)cc(O)c4-c4cc3ccc4O)[C@H](O)c3ccc(c(Cl)c3)Oc3cc2cc(c3O[C@@H]2O[C@H](CO)[C@@H](O)[C@H](O)[C@H]2O[C@H]2C[C@](C)(N)[C@H](O)[C@H](C)O2)Oc2ccc(cc2Cl)[C@H]1O [VANCOMYCIN]
8 µg/mL: MIC [9] | MIC [10]

CCCCCCCCCCn1nnc(-c2n[nH]c(=S)n2N)c1-c1n[nH]c(=S)n1N
1 to 128 µg/mL: MIC [11] | MIC [12] | MIC [13] | MIC [14] | MIC [15] | MIC [16] | MIC [17] | MIC [19]

CC[C@H]1OC(=O)[C@H](C)[C@@H](O[C@H]2C[C@@](C)(OC)[C@@H](O)[C@H](C)O2)[C@H](C)[C@@H](O[C@@H]2O[C@H](C)C[C@H](N(C)C)[C@H]2O)[C@](C)(O)C[C@@H](C)C(=O)[C@H](C)[C@@H](O)[C@]1(C)O [ERYTHROMYCIN]
31 to 1000 µg/mL: MIC [9] | MIC [10]

Cc1nc(-c2ccccc2)sc1-c1nnc(S)n1/N=C/c1ccc(N(C)C)cc1
2: Ratio [5] | Ratio [8]
1.95 µg/mL: MIC [6] | MIC [7]

CC1(C)S[C@@H]2[C@H](NC(=O)[C@H](N)c3ccccc3)C(=O)N2[C@H]1C(=O)O [AMPICILLIN]
10.9 µg/mL: MIC [26]
100 to 250 µg/mL: MIC [29] | MIC [30] | MIC [31] | MIC [32]
10.2 µg/mL: MIC [25]
31 to 1000 µg/mL: MIC [9] | MIC [10]

Cc1nn(-c2ccccc2)c(-n2cncn2)c1-c1cc(-c2ccc(F)cc2)nc2nc3ccccc3n12
100 to 500 µg/mL: MIC [33] | MIC [18] | MIC [20]
62.5 to 125 µg/mL: MIC [29] | MIC [26] | MIC [30] | MIC [31] | MIC [32]
0.041 µg/mL: IC50 [28]

CCCCCCCCCCCCCCn1nnc(-c2n[nH]c(=S)n2N)c1-c1n[nH]c(=S)n1N
1 to 16 µg/mL: MIC [11] | MIC [12] | MIC [13] | MIC [14] | MIC [15] | MIC [16] | MIC [17] | MIC [19]

Cn1cnc(CNCc2ncn(C)n2)n1
7 to 15 µg/mL: MIC [1] | MIC [2] | MIC [3] | MIC [4]
